From US7968572B2, “Nitrogen-containing heterocyclic compound and pharmaceutical application thereof” (Ono Pharmaceuticals Co., Ltd., priority 2005, dated 2011)

Tests used:
[1] = target: T1, recombinant human p38α MAP kinase (Homo sapiens, UniProt Q16539); experiment: Study on p38α MAP kinase inhibitory activity (ATF2 phosphorylation, Alpha Screen); assay type: biochemical; conditions: biotinylated ATF2 substrate, 30° C. for 30 minutes
T1 construct: purchased Upstate Biotechnology #14-251
Protocol: Study on p38α MAP Kinase Inhibitory Activity
Using activating transcription factor-2 (hereinafter abbreviated to ATF2) which is a substrate for p38α MAP kinase, the inhibitory action of the compounds of the present invention was investigated on the phosphorylation by a recombinant human p38α MAP kinase.
A kinase buffer (25 mM Tris-HCl (pH 7.5), 5 mM β-glycerophosphate, 2 mM dithiothreitol, 0.1 mM Na3VO4, 10 mM MgCl2) containing a recombinant human p38α MAP kinase (Upstate Biotechnology #14-251) was added to a 384-well plate (5 μL) (6.25 ng protein/well) for fluorescence measurement. After addition of a kinase buffer (5 μL) containing the compound of the present invention, the resulting mixture was incubated at room temperature for 20 minutes. A substrate mixture (5 μL) of biotinylated ATF2 of 5 μg/mL (Upstate Biotechnology #14-432), adenosine triphosphate (90 μmol/L) (Sigma #FL-AAS) and anti-phosphorylated ATF2 antibody (20-fold dilution) (Cell Signaling Technology #9221L) prepared separately was added thereto, and enzyme reaction was carried out at 30° C. for 30 minutes. After the reaction, Hepes buffer (5 μL) containing 0.25% BSA and 100 mM EDTA was added to stop the enzyme reaction. The amount of a complex of the phosphorylated ATF2 and anti-phosphorylated ATF2 antibody produced by the reaction was measured using an Alpha Screen™ Rabbit Detection kit (Packard #6760607).
The p38α MAP kinase inhibitory activity, which is the effect of the compound of the present invention, was calculated as an inhibition rate (%) according to the following equation: Inhibition rate (%)={(AC−AX)/(AC−AB)}×100
wherein AB is a measured value without addition of the enzyme;
AC is a measured value with addition of the enzyme in the absence of a test compound; and
AX is a measured value with addition of the enzyme in the presence of a test compound.
(§1) Inhibition rate of compounds with each concentration was calculated, and a value indicating 50% inhibition (IC50) was determined from the inhibition curve.

[2] = tested on: TNF-α production stimulated by lipopolysaccharide (LPS) in THP-1; experiment: Inhibitory activity against TNF-α production using human cell lines (LPS-stimulated THP-1); assay type: cell-based; conditions: 1.5 h, THP-1 cells, LPS stimulation, 90 minutes at 37° C., TNF-α by ELISA
Protocol: Inhibitory Activity against TNF-α Production using Human Cell Lines
Using THP-1 which is a human monocytic cell line, the inhibitory effect of the compound of the present invention against TNF-α production stimulated by lipopolysaccharide (LPS) was studied.
Each 50 μL of lipopolysaccharide (LPS; 055:B5, Difco) prepared to a concentration of 40 ng/mL using RPMI-1640 medium containing 10% fetal calf serum (hereinafter abbreviated to RPMI-1640) and RPMI-1640 containing the compound of the present invention was added to a 96-well plate for cell culture. 100 μL of the cell suspension of THP-1 (Dainippon Pharmaceutical Co., Ltd, #06-202) prepared to a cell density of 2×10^6 cells/mL using RPMI-1640 was added and cultured for 90 minutes at 37° C. in an incubator (5% CO2, 95% air). After completion of the reaction, the culture medium supernatant was recovered and the amount of produced TNF-α was measured using an ELISA kit (Invitrogen, #850090192).
The inhibitory activity against TNF-α production, which is the effect of the compound of the present invention, was calculated as an inhibition rate (%) by the following equation: Inhibition rate (%)={(AC−AX)/(AC−AB)}×100
wherein AB is a measured value without LPS induction;
AC is a measured value with LPS induction in the absence of a test compound; and
AX is a measured value with LPS induction in the presence of a test compound.
as §1

[3] = tested on: TNF-α production induced by lipopolysaccharide (LPS) in rats; experiment: Rat cytokine-production model; assay type: in vivo; conditions: male SD rat, oral 0.3 mg/kg, LPS 10 μg/kg intravenously after 8 hours, plasma TNF-α ninety minutes after LPS; read-out: Inhibition rate (%) (Dose of compound: 0.3 mg/kg)
Protocol: Rat Cytokine-Production Model
The in vivo effect of the compound of the present invention was studied on TNF-α production induced by lipopolysaccharide (LPS) in rats.
A vehicle containing the compound of the present invention was orally administered to male SD rat (Charles River Japan, Inc.), and after 8 hours, lipopolysaccharide (LPS, 055:B5, Difco) was intravenously administered at the dose of 10 μg/kg (5 animals/group). Only a vehicle was orally administered to a control group (5 animals). Ninety minutes after the LPS treatment, heparinized blood collection was performed via the abdominal vena cava under anesthesia with ether, and blood plasma was obtained by centrifugation (12,000 rpm, 3 minutes, 4° C.). The obtained blood plasma sample was stored at −80° C. until it was used. TNF-α in the blood plasma was measured using an ELISA kit from R&D System (#RTA00).
The inhibitory activity of the compound of the present invention against TNF-α production was calculated as an inhibition rate (%) according to the following equation: Inhibition rate (%)={(AC−AX)/AC}×100
wherein AC is a measured value in case where no test compound was administered under LPS induction, and
AX is a measured value in case where a test compound was administered under LPS induction.

[4] = Evaluation of artificial lipid membrane binding using a Biacore S51 system
Protocol: Evaluation of Artificial Lipid Membrane Binding using a Biacore S51 (Registered Trademark) System
Using an aspirator, 10 mM of 1,2-dioleoyl-sn-glycero-3-phosphate monosodium salt (hereinafter abbreviated to DOPA) chloroform solution was evaporated to be dryness, and 0.6 mL of PBS/5% dimethyl sulfoxide (hereinafter abbreviated to DMSO) was added thereto. After carrying out thorough suspension by vortex, freezing and thawing were repeated for 5 times. Liposomes were prepared using a liposome preparation device (manufactured by Avestin Inc.) and two syringes and diluted to be 0.5 mM with PBS/5% DMSO just before the immobilization.
Each compound having a final concentration in PBS/5% DMSO of 50 μM was prepared by adding 38 μL of 1× PBS to 2 μL of 10 mM DMSO solution and further adding 360 μL of 1× PBS/5% DMSO and measured.
All of the following analyses were carried out using the Biacore S51 (registered trademark) system, and the measuring conditions were set up by Biacore S51 Control Software.
The measuring temperature was set to be 37° C., and PBS/5% DMSO (pH 7.4 or pH 6.0) was used as the buffer. Series S Sensor Chip L1 was used as the sensor chip. DOPA was immobilized on one of the measuring spots on the sensor surface, and the central spot was used as the reference.
Immobilization of the liposomes was carried out for about 3 minutes at a flow rate of 10 μL/minute, and then each compound was added thereto at a flow rate of 30 μL/minute to measure the interaction. The measuring conditions are as shown in the following.
Assay buffer: PBS/5% DMSO (pH 7.4 or pH 6.0)
Measuring temperature: 37° C.
Sensor chip: Series S Sensor Chip L1
Flow rate: 10 μL/minute at the time of liposome immobilization, 30 μL/minute at the time of interaction measurement
Regeneration: 20 mM CHAPS (3-[(3-cholamidopropyl)dimethylammonio]-1-propanesulfonate), an isopropanol/50 mM aqueous solution of sodium hydroxide=40/60 (volume ratio) mixed solution (60 seconds)
The data treatment was carried out in accordance with the method of Abdiche et al. (Analytical Biochemistry, 328, 233-243 (2004)) using Biacore S51 Evaluation Software.
After correcting infinitesimal error of the concentration of DMSO contained in the sample solution, the value of binding response (RU) obtained by subtracting the value of reference was divided by the sample molecular weight. Additionally, since the thus obtained value is proportional to the capturing amount of liposome, it was divided by the capturing amount at the time of the cycling and multiplied by 10^6 to be used as the correction value (correction value=1000000×RU (compound to be tested)/molecular weight (compound to be tested) RU (liposome)).
By adding propranolol, amiodarone, desipramine, imipramine and procaine as controls, it was confirmed that variation of the binding response is within about 10 to 15%.
Compounds having a binding response value after correction of 100 or more were judged positive.

[5] = tested on: Chinese hamster lung cells (CHL/IU); experiment: Phospholipidosis detection system using a fluorescence labeling phospholipid analog (NBD-PE); assay type: cell-based
Protocol: Study by a Phospholipidosis Detection System using a Fluorescence Labeling Phospholipid Analog Cell suspension (7×10^4 cells/ml) of Chinese hamster lung cells (CHL/IU) prepared using MEM (minimum essential medium) was added to a 96 well plate (96 well clear bottom plate) by 100 μL/necessary number of wells (2 wells for 1 dosage) and cultured for about 24 hours. After the culturing and subsequent removal of the supernatants on the 96 well plate, the compounds having respective concentrations prepared by dissolving or suspending in MEM medium containing 25 μmol/L of nitrobenzoxazole dipalmitoyl phosphatidyl ethanolamine (NBD-PE) (hereinafter abbreviated to NBD-PE medium) were added thereto by 100 μL/ well and treated for about 24 hours. Treating concentration of each compound was set to be 6.25, 12.5, 25, 50 or 100 μmol/L. […] In this connection, 5 wells of an untreated control (MEM medium alone) or an NBD-PE control (prepared by adding 1/100 volume of DMSO to the NBD-PE medium) were arranged for each compound and cultured in the same manner. After completion of the culturing and subsequent two times of washing with 100 μL/well of phosphate buffered saline (hereinafter abbreviated to PBS) (−), 100 μL of the MEM medium was added to all of the treated wells including two empty wells for the WST-1 background control and cultured for about 0.5 hour. Fluorescence intensity of each well was measured using a microplate reader (manufactured by Molecular Devices, SPECTRA max M2; excitation wavelength 485 nm/fluorescence wavelength 535 nm). Using average value of 2 wells for each dosage, the phospholipid increasing ratio (%) based on NBD-PE control was calculated using the following formula. Phospholipid accumulation increasing ratio (%)=100×(fluorescence intensity of substance to be tested−fluorescence intensity of untreated control)/(fluorescence intensity of NBD-PE control−fluorescence intensity of untreated control) (iii) Cytotoxicity Test The Pre value was calculated by measuring the 96 well plate which was measured in the measurement of phospholipid accumulation, using the microplate reader (manufactured by Molecular Devices, SPECTRA max M2) at a dominant wavelength of 450 nm and a correction wavelength of 690 nm. Premix WST-1 was added to the pre-measured 96 well plate by 5 μL/well. After 2 to 4 hours of culture, the Aft value was calculated by measuring in the same manner as in the Pre measurement. The background control value was subtracted from each of the measured values. Using the value obtained by subtracting the Pre value from the Aft value, the cell growth ratio (%) was calculated using the following formula.

T1 sequence (Q16539 whole entry): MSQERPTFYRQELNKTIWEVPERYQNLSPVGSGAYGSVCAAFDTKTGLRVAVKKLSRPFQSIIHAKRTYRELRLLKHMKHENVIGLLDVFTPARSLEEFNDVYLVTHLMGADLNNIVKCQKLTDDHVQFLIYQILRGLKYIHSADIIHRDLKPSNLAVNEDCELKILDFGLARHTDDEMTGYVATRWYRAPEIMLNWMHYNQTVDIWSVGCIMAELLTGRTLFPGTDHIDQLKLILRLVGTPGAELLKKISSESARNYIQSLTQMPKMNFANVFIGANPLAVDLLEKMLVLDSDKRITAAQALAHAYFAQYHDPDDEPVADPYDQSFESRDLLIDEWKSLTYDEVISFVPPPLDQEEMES

Row | IC50 [1] | IC50 [2] | Binding Level (RU) ([4]; compound 50 μM, DOPA liposomes on Sensor Chip L1, 37° C., PBS/5% DMSO (pH 7.4 or pH 6.0)) | SMILES | inhibition at 0.3 mg/kg [3] | Judgment ([4]; phospholipidosis inducing activity judged from artificial lipid membrane binding) | Pospholipid accumulation increasing ratio (% of 30 uM amiodarone) (Dose of compound: 100 uM) ([5]; compound 100 uM, about 24 hours with NBD-PE) | Judgment ([5]; phospholipidosis inducing activity, NBD-PE)
1 | 12 nM | 2.6 nM | – | Cc1cc(Cl)cc(C)c1-n1cc(-c2nc(C(C)(CO)CO)oc2-c2ccc(F)cc2F)ccc1=O [Compound 6a, 1-(4-chloro-2,6-dimethylphenyl)-5-{5-(2,4-difluorophenyl)-2-[2-hydroxy-1-(hydroxymethyl)-1-methylethyl]-1,3-oxazol-4-yl}-2(1H)-pyridinone] | – | – | – | –
2 | 1.7 nM | 0.7 nM | 15.5 RU | CC(C)(O)c1nc(-c2ccc(F)cc2F)c(-c2ccc(=O)n(-c3c(F)cccc3F)c2)o1 [Compound 89 (b), 1-(2,6-difluorophenyl)-5-[4-(2,4-difluorophenyl)-2-(1-hydroxy-1-methylethyl)-1,3-oxazol-5-yl]-2(1H)-pyridinone] | 82% | Negative | – | –
3 | 5.8 nM | 0.7 nM | – | C[C@](O)(CO)c1nc(-c2ccc(F)cc2F)c(-c2ccc(=O)n(-c3c(F)cccc3F)c2)o1 [Example 210, 1-(2,6-difluorophenyl)-5-{4-(2,4-difluorophenyl)-2-[(1S)-1,2-dihydroxy-1-methylethyl]-1,3-oxazol-5-yl}-2(1H)-pyridinone] | 49% | – | 8 % of 30 uM amiodarone | Negative
